This note sets out measurements from US4695648A, “Novel arylacetic acid derivatives” (Pharmacia AB, priority 1984, dated 1987).

The test addresses T1, 15-hydroxy-prostaglandin dehydrogenase (PGDH) (Homo sapiens, UniProt P15428).
T1 construct: cell-free preparations of human placenta (containing PGDH); from tissue; host or cells: human placenta, cell-free preparation
T1 sequence (P15428 1-266): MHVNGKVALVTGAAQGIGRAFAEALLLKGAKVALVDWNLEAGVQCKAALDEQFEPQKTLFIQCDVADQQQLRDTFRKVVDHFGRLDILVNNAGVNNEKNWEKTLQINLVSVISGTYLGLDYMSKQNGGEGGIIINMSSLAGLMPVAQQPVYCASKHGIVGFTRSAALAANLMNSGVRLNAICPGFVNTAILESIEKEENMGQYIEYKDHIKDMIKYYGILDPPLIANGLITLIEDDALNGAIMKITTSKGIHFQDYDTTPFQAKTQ
Briefly: Inhibition of 15-Hydroxy Prostaglandin Dehydrogenase (in vitro, cell-free preparations of human placenta, radioactive PGF2 degradation). It counts as biochemical. Conditions: 50% inhibition of degradation of radioactive PGF2 vs controls without inhibitor. Here is the method: Radioactive prostaglandin F2 (PGF2 ) is incubated with cell-free preparations of human placenta (containing PGDH) as desribed by Hoult and Moore, Brithish Journal of Pharmacology Vol. 61 (1977), p. 615. After a suitable incubation period the prostaglandins are extracted and separated chromatographically. The amount of unchanged PGF2 is then compared with the amount of metabolites. The inhibitory effect is evaluated by measurement of the effect in the presence of different amounts of added inhibitor and determination of the concentration (IC50 ) at which 50% inhibition of degradation has been obtained as compared to controls run without inhibitor additions. Very good inhibitors are considered to be those that inhibit PGDH by 50% at a concentration of 10 μM or less. Good inhibitors are considered to be those that inhibit at a concentration of between 10 and 100 μM. Also where a compound has to be classified as less good this will often be compensated in actual practice by other valuable properties, such as for instance a low toxicity or particularly suitable pharmacokinetic properties.
The Table below sets forth IC50 values for a number of compounds according to the invention. For comparison the Table also gives the IC50 value of 5-phenylazo-2-hydroxybenzeneacetic acid which is a known effective PGDH inhibitor described in EP,-A-No. 21229.
Usually IC50 stands for the concentration needed to halve the response being measured. For the compound `O=C(O)Cc1cc(N=Nc2ccccc2)ccc1O` [5-phenylazo-2-hydroxybenzeneacetic acid, reference compound], the half-inhibitory concentration (IC50) came out at 12000 nM.

For the compound `O=C(O)Cc1cc(C(=O)c2ccccc2)ccc1O` [Example 1, 5-Benzoyl-2-hydroxy-benzeneacetic acid], the concentration for half-maximal inhibition (IC50) worked out at 1400 nM.

For `Cc1cc(C)cc(C(=O)c2ccc(O)c(CC(=O)O)c2)c1` [Example 3, 5-(3,5-Dimethyl-benzoyl)-2-hydroxy-benzeneacetic acid], the half-maximal inhibitory concentration (IC50) was 22000 nM.

Take `O=C(O)Cc1cc(C=Cc2ccccc2)ccc1O` [Example 4, 2-Hydroxy-5-(2-phenyl-1-ethenyl)-benzeneacetic acid]: the IC50 turned out to be 20000 nM.

`O=C(O)Cc1cc(C(=O)c2ccc(Cl)cc2)ccc1O` [Example 5, 2-Hydroxy-5-(4-chlorobenzoyl)-benzeneacetic acid]: the 50% inhibitory concentration (IC50) is 600 nM.

On to `N#Cc1ccc(C(=O)c2ccc(O)c(CC(=O)O)c2)cc1` [Example 6, 5-(4-Cyanobenzoyl)-2-hydroxy-benzeneacetic acid], for which the half-maximal inhibitory concentration (IC50) came out at 740 nM.

With `O=C(O)Cc1cc(C(=O)c2ccc(C(=O)O)cc2)ccc1O` [Example 7, 2-Hydroxy-5-(4-carboxybenzoyl)-benzeneacetic acid], the IC50 is 1300 nM.

Consider `O=C(O)Cc1cc(C(=O)c2ccccc2)cc(Br)c1O` [Example 9, 5-Benzoyl-3-bromo-2-hydroxy-benzeneacetic acid], for which the IC50 turned out to be 42000 nM.

In the case of `O=C(O)Cc1cc(C(=O)c2ccccc2F)ccc1O` [Example 10, 5-(2-Fluorobenzoyl)-2-hydroxy-benzeneacetic acid], the IC50 is 740 nM.

As for `O=C(O)Cc1cc(C(=O)c2ccc(Cl)cc2Cl)ccc1O` [Example 11, 5-(2,4-Dichlorobenzoyl)-2-hydroxy-benzeneacetic acid], the concentration for half-maximal inhibition (IC50) was determined as 210 nM.

On to `O=C(O)Cc1cc(C(=O)c2cccc(F)c2)ccc1O` [Example 12, 5-(3-Fluorobenzoyl)-2-hydroxy-benzeneacetic acid], for which the IC50 is 1300 nM.

In the case of `O=C(O)Cc1cc(C(=O)Cc2ccccc2)ccc1O` [Example 14, 5-(2-Phenylacetyl)-2-hydroxy-benzeneacetic acid], the IC50 amounted to 56000 nM.

Regarding `O=C(O)Cc1cc(C(=O)Cc2ccc(C(=O)O)cc2)ccc1O` [Example 15, 2-Hydroxy-5-(2-(4-carboxyphenyl)-acetyl)-benzeneacetic acid], the IC50 amounted to 1700 nM.

On to `O=C(O)Cc1cc(C(=O)C=Cc2ccccc2)ccc1O` [Example 16, 5-(3-Phenyl-1-oxo-2-propenyl)-2-hydroxy-benzeneacetic acid], for which the IC50 stood at 12000 nM.

On to `O=C(O)Cc1cc(C(=O)C=Cc2ccc(C(=O)O)cc2)ccc1O` [Example 17, 2-Hydroxy-5-(3-(4-carboxyphenyl)-1-oxo-2-propenyl)benzeneacetic acid], for which the IC50 stood at 1400 nM.

`O=C(O)Cc1cc(C(=O)c2cccc(C(=O)O)c2)ccc1O` [Example 18, 2-Hydroxy-5-(3-carboxybenzoyl)-benzeneacetic acid]: the IC50 was determined as 6000 nM.

As to `COC(=O)Cc1cc(C(=O)c2ccc(F)cc2)ccc1O` [Example 20, Methyl-5-(4-fluorobenzoyl)-2-hydroxy-benzeneacetate], the concentration for half-maximal inhibition (IC50) stood at 4900 nM.

Consider `O=C(O)Cc1cc(C(=O)c2ccc(F)cc2)ccc1O` [Example 21, 5-(4-Fluorobenzoyl)-2-hydroxy-benzeneacetic acid], for which the half-inhibitory concentration (IC50) worked out at 580 nM.

Consider `O=C(O)Cc1cc(C(=O)c2c(F)cccc2F)ccc1O` [Example 25, 5-(2,6-Difluorobenzoyl)-2-hydroxy-benzeneacetic acid], for which the IC50 came to 380 nM.

Turning to `CC(C)c1ccc(C=CC(=O)c2ccc(O)c(CC(=O)O)c2)cc1` [Example 29, 5-(3-(4-(1-Methyl-ethyl)-phenyl)-1-oxo-2-propenyl)-2-hydroxy-benzeneacetic acid], the 50% inhibitory concentration (IC50) was 1300 nM.

Take `COc1ccc(C=CC(=O)c2ccc(O)c(CC(=O)O)c2)cc1` [Example 30, 5-(3-(4-Methoxyphenyl)-1-oxo-2-propenyl)-2-hydroxybenzeneacetic acid]: the half-inhibitory concentration (IC50) was found to be 1900 nM.

`CC(=O)c1ccc(C(=O)c2ccc(O)c(CC(=O)O)c2)cc1` [Example 32, 5-(4-Acetylbenzoyl)-2-hydroxy-benzeneacetic acid]: the concentration for half-maximal inhibition (IC50) stood at 630 nM.

Take `O=C(O)Cc1cc(C=Cc2ccc(C(=O)O)cc2)ccc1O` [Example 33, 2-Hydroxy-5-(2-(4-carboxyphenyl)-1-ethenyl)-benzeneacetic acid]: the IC50 is 400 nM.
